Experiments:
humans [1] = assay: MAC / anaesthetic EC50 in humans; type: in vivo; conditions: 37° C.
Description: (§1) The gaseous concentration of xenon which prevents a response to a painful stimulus (i.e. MAC) appears to vary among species, being 71% atm in humans (Cullen SC et al, Anesthesiology 1969, 31:305-309), 98% atm in rhesus monkeys (Whitehurst S L et al, J. Neurosurg. Anesthesiol. 1994, 6:275-279) and 161% atm in rats (Koblin D D et al, Anesth. Analg. 1998, 87:419-424). When these values are converted to free aqueous concentrations at 37° C. (Franks N P et al, Br. J. Anaesth. 1993, 71:65-76; Franks N P et al, Anesthesiology, 1996, 84:716-720) using an Ostwald water/gas partition coefficient of 0.0887 (Weathersby P K et al, Undersea Biomed. Res. 1980, 7:277-296), the values obtained are 2.5 mM, 3.4 mM and 5.6 mM for humans, monkeys and rats respectively, with the average value being 3.8 mM. For the experiments described herein, performed at room temperature, the concentration of xenon present in the standard test solution was 3.4 mM. […] This is illustrated with representative traces in FIG. 2.

[2] = system: c Fos expression in arcuate nucleus of hypothalamus; assay: c Fos expression in arcuate nucleus after NMA (inhibition of synaptic plasticity in vivo); parameters: species or system Sprague Dawley female adult rats; conditions: 75% Xe + NMA 100 mg/kg s.c.
From the text: With exposure to NMA neuronal activation is enhanced (E vs A) which is indicative of synaptic plasticity. In the presence of both Xenon (D) and MK 801 (B), synaptic plasticity induced by NMA is inhibited. […] This is sometimes referred to as long term potentiation, an example of synaptic plasticity. […] The attenuation of c Fos expression is a reflection of the inhibition of synaptic plasticity.

rhesus monkeys = assay: MAC in rhesus monkeys; type: in vivo; conditions: 37° C.
Description: as §1

GABAA receptors = assay: Currents evoked by exogenously applied GABA in voltage-clamped cultured hippocampal neurons; type: cell-based; conditions: 100% xenon; cultured rat hippocampal neurons
rats = conditions: cited from earlier work
humans [3] = conditions: cited from earlier work
[4] = system: cortical neuronal-glial co-culture injured with NMDA; assay: NMDA-induced neuronal injury in neuronal-glial co-culture (LDH release); type: cell-based, mouse
Description: (§2) Dissociated murine cortical cell cultures were prepared using whole cerebral neocortices from fetal mice (14-17 days of gestation). Cortical glial cell cultures were prepared from early postnatal mice. After halting non-neuronal cell division with cytosine arabinoside the surviving cortical neuronal cells were plated onto the glial cell background and co-cultured.
(§3) 15 days after originally harvesting the foetal cortical cells, the co-culture plates were exposed at room temperature to N-methyl,D-aspartate (NMDA), 10-1,000 μM, in a control salt solution (CCS) for 10 minutes. After carefully washing out with CCS, the cells were incubated for 6-24 hours in a Eagle's minimal essential medium free of glutamate or lactate dehydrogenase (LDH) but supplemented with glucose 25 mM, and NaHCO3 38 mM at 37° C. in humidified CO2 (5%) atmosphere. The degree of injury was determined by measuring the LDH released into the medium. A dose-response curve of NMDA-induced injury is shown in FIG. 10, as described hereinbefore.
75% of one atmosphere of xenon was delivered to the cells during and after exposure to a 750 μM NMDA, a concentration which produces a near maximal injury. The degree of injury was determined by measuring the LDH released into the medium (after correcting for “baseline” LDH release). Xenon reduced the injury produced by NMDA by more than 30%; when xenon was continued after NMDA exposure, the injury was further reduced by more than 55%. The results of the protective effect of xenon are illustrated in FIG. 12, as described hereinbefore.

[5] = system: cortical neuronal-glial co-culture injured with glutamate; assay: Glutamate-induced neuronal injury in neuronal-glial co-culture (LDH release); type: cell-based, mouse
Description: as §2
as §3, with “the” for “the foetal”, “glutamate” for “N-methyl,D-aspartate (NMDA),”, “CCS from 10-30” for “a control salt solution (CCS) for 10”, “glutamate-induced” for “NMDA-induced”, “11,” for “10,”
75% of one atmosphere of xenon was delivered to the cells during and after exposure to 75 μM glutamate, a concentration which produces a near maximal injury. The degree of injury was determined by measuring the LDH released into the medium (after correcting for “baseline” LDH release). Xenon reduced the injury produced by glutamate by more than 35%; when xenon was continued after glutamate exposure, the injury was further reduced by more than 60%. The results of the protective effect of xenon are illustrated in FIG. 13, as described hereinbefore.

humans, monkeys and rats = assay: MAC as free aqueous concentration, average of humans, monkeys and rats; type: in vivo; conditions: 37° C.
Description: as §1

## [Xe] [xenon]
Humans [1]
  MAC converted to free aqueous concentration: 2.5 mM
[2]
  synaptic plasticity induced by NMA (c Fos expression): is inhibited
Rhesus monkeys
  MAC converted to free aqueous concentration: 3.4 mM
GABAA receptors
  effect on currents activated by 3 μM GABA: not significantly affected
rats
  gaseous concentration which prevents a response to a painful stimulus (MAC): 161 % atm
Humans [3]; human
  half maximal effective concentration EC50 as a human anaesthetic: 71 % v/v
Humans [3]; humans
  gaseous concentration which prevents a response to a painful stimulus (MAC): 71 % atm
[4]; 250 μM NMDA for 10 minutes, low (sub-anaesthetic) concentrations of xenon, LDH after 6 hours
  protection against excitotoxicity (% of LDH released in the absence of xenon): Highly significant protection
[4]; 250 μM NMDA, 75% xenon
  excitotoxic injury (LDH release, normalised): greatly reduced
[4]; 75% (atm.) xenon, after 6 hours, 10 minute exposure to 250 μM NMDA
  percentage of neuroprotection: 60%
[4]; 75% of one atmosphere xenon during exposure to 750 μM NMDA
  reduction of the injury produced by NMDA (LDH release): more than 30%
[4]; 75% xenon continued after 750 μM NMDA exposure
  reduction of the injury produced by NMDA (LDH release): more than 55%
[5]; 100 μM glutamate for 10 minutes, low, sub-anaesthetic concentrations of xenon, LDH after 6 hours
  protection against excitotoxicity (LDH release): Highly significant protection
[5]; 75% of one atmosphere xenon during exposure to 75 μM glutamate
  reduction of the injury produced by glutamate (LDH release): more than 35%
[5]; 75% xenon continued after 75 μM glutamate exposure
  reduction of the injury produced by glutamate (LDH release): more than 60%
humans, monkeys and rats
  MAC as free aqueous concentration, average value: 3.8 mM
